Experimental data published in patent US20240342216A1, “METHODS OF TREATING CANCER” (Therapeutics By Design, LLC, priority 2021, published 2024).
“Also recorded” adds a separate entry of the source.

B1: BMP-7: bone morphogenetic protein-7, member of the transforming growth factor-beta superfamily (protein, UniProt P18075 293-431, looked up)
Bone morphogenetic protein 7: STGSKQRSQNRSKTPKNQEALRMANVAENSSSDQRQACKKHELYVSFRDLGWQDWIIAPEGYAAYYCEGECAFPLNSYMNATNHAIVQTLVHFINPETVPKPCCAPTQLNAISVLYFDDSSNVILKKYRNMVVRACGCH

Legend:
[1] = test system: bulk tumor cell growth from prostate cancer; details: by activating SMAD 1/5/8 signaling; Bosukonda et al. 2009; cited from earlier work
[2] = test system: human breast cancer stem cells; experiment: mammosphere (tumorsphere) formation assay, self-renewal in vitro; type: cell-based; details: for inhibition of mammosphere / tumorsphere formation: non-adherent culture, serum-free stem cell medium, 5 to 7 days
Protocol: Isolated human breast cancer stem cells treated with BMP-7 (500 ng/ml) for 7 days in non-adherent culture.
To investigate Peptide 123 (SEQ ID NO: 1) and BMP-7 effects on cancer stem cell function, their ability to influence self-renewal in vitro by using the mammosphere assay was examined. The mammosphere assay was developed as a method to propagate mammary epithelial stem cells (MaSC) in vitro by Dontu et al. (Genes Dev 17: 1253-1270 (2003)).
A procedure as described in manufacturer's manual (ProMab, California) was followed to grow cancer stem cells into mammospheres. For mammosphere culture, isolated human breast cancer stem cells were seeded in six well ultralow adherence plates (Corning Inc., Corning, NY, USA) and grown as non-adherent cell suspensions in serum-free stem cell culture medium (ProMab, California). Primary and secondary mammosphere formation was achieved by using weekly trypsinization and dissociation, followed by reseeding in ultralow adherence six well plates.

[3] = test system: human breast cancer stem cells; experiment: FACS quantification of CD44+ and E-cadherin+ cells; type: cell-based; details: for percent loss of CD44+ cells / percent gain in E-cadherin+ cells: non-adherent culture 8 days, vs untreated; for change in CD44+ cells (stem cell phenotype), in words / change in E-Cadherin+ cells (epithelial phenotype), in words: vs untreated control
Protocol: Untreated cells were incubated with APC labeled mouse anti-human antibody to CD44 antibody and FITC labeled rat anti-human E-Cadherin antibody. Cells were gated to exclude events in water and events due to cell death and debris. Cells were then gated to identify CD44+ and E-Cadherin+ populations based on corresponding fluorescence activity and labeled R7 and R11 respectively. […] Untreated cells were incubated with corresponding isotype antibodies, APC labeled mouse IgG1 and FITC labeled mouse IgG1. Cells were gated to exclude events in water and events due to cell death and debris.
(§1) Cells were plated and incubated for 24 hours to form tumorspheres. On day 2, cells were treated with 300 μM P123, followed by subsequent treatments on days 3, 5, and 8. Cells were then incubated with APC labeled mouse anti-human CD44 antibody and FITC labeled rat anti-human E-Cadherin antibody. Cells were gated to exclude events in water and events due to cell death and debris. Cells were then gated to identify CD44+ and E-Cadherin+ populations based on corresponding fluorescence activity and labeled R7 and R11 respectively. […] Cells were treated with P123 as described in (A). Cells were then incubated with corresponding isotype antibodies, APC labeled mouse IgG1 and FITC labeled mouse IgG1. Cells were gated to exclude events in water and events due to cell death and debris.
as §1, with “BMP-7 at 430 ng/ml with” for “300 μM P123, followed by”, “treatments at 362 ng/ml” for “treatments”, “day” for “days”, “3, 314 ng/ml on day” for “3,”, “277 ng/ml on day 8 (media was added at 10% volume resulting in decreased concentrations).” for “8.”, “BMP-7” for “P123”
Differentiation of chemo-resistant cancer stem cells, specifically a loss of its stem cell phenotype and self-renewal ability, could be a viable approach to the treatment of tumor recurrence and metastasis (Chirasani S R, Sternjak A, Wend P, et al. Bone morphogenetic protein-7 release from endogenous neural precursor cells suppresses the tumourigenicity of stem-like glioblastoma cells. Brain 2010, 133:1961-1972). Although this approach may or may not directly kill the cancer cells, it could make CSCs more responsive to conventional chemotherapies. Therefore, Peptide 123 and BMP-7 were examined to determine if they affected differentiation of human breast cancer stem cells. Sensitive flow cytometry method (Gupta V et al., Methods Mol Biol. 2011, 716: 179-191) to quantify CD44+, indicating stem cell phenotype, and E-cadherin+, indicating epithelial phenotype cells, after treatment with or without P123 (SEQ ID NO: 1) and BMP-7. Human breast cancer stem cells were grown in non-adherent cell suspension in serum-free medium for 8 Days. […] Importantly, the percent loss of CD44+ cells after treatment with the P123, 50%, was greater than that after treatment with BMP-7, 19% (FIGS. 4 and 5). Furthermore, a gain in E-cadherin+ cells was observed, which was proportional to the loss of CD44+ cells (FIGS. 4-6). Similarly, the percent gain in E-cadherin+ cells after treatment with P123, 50%, was greater than that after treatment with BMP-7, 19%, (FIG. 7).

| Molecule | inhibition of bulk tumor cell growth from prostate cancer [1] | inhibition of mammosphere / tumorsphere formation ([2]; 300 μM) | inhibition of mammosphere / tumorsphere formation ([2]; 300 μM, listed as P123) | percent loss of CD44+ cells ([3]; 300 uM, treated days 2, 3, 5, 8) [%] | percent gain in E-cadherin+ cells ([3]; 300 uM) [%] | change in CD44+ cells (stem cell phenotype), in words ([3]; 300 uM, listed as P123) | change in E-Cadherin+ cells (epithelial phenotype), in words ([3]; 300 uM, listed as P123) | mammosphere formation after withdrawal of treatment ([2]; 500 ng/ml for 7 days, then 7 days with no treatment) | inhibition of mammosphere / tumorsphere formation ([2]; 500 ng/ml) | percent gain in E-cadherin+ cells ([3]; 314-430 ng/ml) [%] | percent loss of CD44+ cells ([3]; 314-430 ng/ml) [%] | change in CD44+ cells (stem cell phenotype), in words ([3]; 314-430 ng/ml) | change in E-Cadherin+ cells (epithelial phenotype), in words ([3]; 314-430 ng/ml) |
| --- | --- | --- | --- | --- | --- | --- | --- | --- | --- | --- | --- | --- | --- |
| CYFDDSSNVLCKKYRS [Peptide 123, TDFRP, a peptide agonist of BMP signaling] | capable of inhibiting bulk tumor cell growth from prostate cancer | profound inhibition of tumorsphere formation | profound inhibition of mammosphere formation | 50 | 50 | marked decline in CD44+ cells; also recorded: marked decrease in CD44+ cells | marked increase in E-Cadherin+ cells; also recorded: majority of P123 treated cells were E-Cadherin+ | – | – | – | – | – | – |
| B1 | – | – | – | – | – | – | – | regained the ability to form tumorspheres; also recorded: significant increase in Mammosphere formation | inhibited tumorsphere formation; also recorded: moderate inhibition of mammosphere formation | 19 | 19 | marked decline in CD44+ cells; also recorded: a decrease in CD44+ cells | an increase in E-Cadherin cells; also recorded: an increase E-Cadherin+ with a large portion of CD44+ remaining |
